The values that follow come from patent US20130129720A1, “Combination Cancer Therapies with Wortmannin Analogs” (ONCOTHYREON INC., priority 2010, published 2013).

What is called IC50 is the concentration at which inhibition is half-maximal. By AUC(0-t) is commonly meant the area under the concentration-time curve up to a stated or last time point. The term Cmax denotes the maximum level reached in the sampled fluid or tissue. The term half-life denotes the time needed for the level to fall by half in the phase considered. By Tmax is commonly meant the time from dosing to the highest level.

One data set deals with PIK3CA (Homo sapiens, UniProt P42336). In words: in vitro kinase assay, PIK3CA. Format: biochemical. The text has this:
(§1) Table 1 illustrates the potency of 17-hydroxy PX-866 metabolite in in vitro kinase assays: […]

Another data set deals with PIK3CB (Homo sapiens, UniProt P42338). In words: in vitro kinase assay, PIK3CB. It counts as biochemical.
Sequence of PIK3CB (P42338 whole entry): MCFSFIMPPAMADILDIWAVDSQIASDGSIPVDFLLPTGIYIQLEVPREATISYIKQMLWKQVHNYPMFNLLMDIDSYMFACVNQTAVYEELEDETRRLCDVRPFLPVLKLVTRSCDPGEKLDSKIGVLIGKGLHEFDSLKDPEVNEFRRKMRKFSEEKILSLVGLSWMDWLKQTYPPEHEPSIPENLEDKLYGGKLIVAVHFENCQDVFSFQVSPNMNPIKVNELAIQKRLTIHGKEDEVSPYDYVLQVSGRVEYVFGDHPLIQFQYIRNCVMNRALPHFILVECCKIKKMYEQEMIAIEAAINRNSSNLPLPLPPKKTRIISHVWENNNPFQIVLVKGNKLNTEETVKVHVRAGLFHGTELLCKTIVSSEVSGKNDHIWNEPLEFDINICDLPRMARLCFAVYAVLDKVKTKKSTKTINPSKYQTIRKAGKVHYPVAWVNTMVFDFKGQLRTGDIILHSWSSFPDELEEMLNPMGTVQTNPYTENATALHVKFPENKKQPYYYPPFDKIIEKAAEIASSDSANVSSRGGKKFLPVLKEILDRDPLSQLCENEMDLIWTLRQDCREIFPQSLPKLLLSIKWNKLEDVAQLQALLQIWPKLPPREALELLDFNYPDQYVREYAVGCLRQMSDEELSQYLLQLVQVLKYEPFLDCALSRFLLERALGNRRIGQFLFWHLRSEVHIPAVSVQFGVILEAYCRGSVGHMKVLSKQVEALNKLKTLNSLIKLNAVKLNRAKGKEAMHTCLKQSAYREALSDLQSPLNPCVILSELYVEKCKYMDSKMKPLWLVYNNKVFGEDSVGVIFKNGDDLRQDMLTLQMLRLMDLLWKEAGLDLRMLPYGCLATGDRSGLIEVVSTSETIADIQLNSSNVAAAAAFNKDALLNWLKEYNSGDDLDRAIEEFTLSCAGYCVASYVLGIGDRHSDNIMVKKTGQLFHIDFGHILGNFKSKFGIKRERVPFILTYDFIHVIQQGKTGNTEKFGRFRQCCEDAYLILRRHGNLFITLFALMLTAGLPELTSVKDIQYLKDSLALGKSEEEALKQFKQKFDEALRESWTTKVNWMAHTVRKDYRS
Sequence of PIK3CB (P27986 whole entry partner): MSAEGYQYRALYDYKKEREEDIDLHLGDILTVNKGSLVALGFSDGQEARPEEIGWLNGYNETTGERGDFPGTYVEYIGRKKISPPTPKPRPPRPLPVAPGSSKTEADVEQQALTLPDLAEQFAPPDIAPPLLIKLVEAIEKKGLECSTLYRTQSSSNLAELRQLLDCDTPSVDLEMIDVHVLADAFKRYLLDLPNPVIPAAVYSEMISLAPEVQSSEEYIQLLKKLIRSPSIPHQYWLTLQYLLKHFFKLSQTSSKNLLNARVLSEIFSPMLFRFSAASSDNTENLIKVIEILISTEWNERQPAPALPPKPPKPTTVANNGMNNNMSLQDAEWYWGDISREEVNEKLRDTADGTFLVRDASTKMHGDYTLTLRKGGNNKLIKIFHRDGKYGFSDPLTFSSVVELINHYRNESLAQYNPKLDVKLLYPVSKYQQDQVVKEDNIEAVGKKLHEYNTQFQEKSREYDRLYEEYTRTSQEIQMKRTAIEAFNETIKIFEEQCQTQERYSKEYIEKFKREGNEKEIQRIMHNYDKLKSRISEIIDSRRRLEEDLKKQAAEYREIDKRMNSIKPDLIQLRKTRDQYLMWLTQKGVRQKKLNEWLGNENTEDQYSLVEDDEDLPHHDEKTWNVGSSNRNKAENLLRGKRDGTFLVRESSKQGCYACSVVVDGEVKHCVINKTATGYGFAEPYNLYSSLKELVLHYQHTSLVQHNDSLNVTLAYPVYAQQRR
Text: as §1

The next data set addresses PIK3CD (Homo sapiens, UniProt O00329). The data set can be described thus: in vitro kinase assay, PIK3CD. It counts as biochemical.
Text: as §1

In another data set the target is PIK3CG (Homo sapiens, UniProt P48736). In words: in vitro kinase assay, PIK3CG. Format: biochemical.
Text: as §1

For another data set, the target named is p110α (Homo sapiens, UniProt P42336). In words: cell based assays, p110α. Particulars: for IC50: in cell based assays. The source says:
(§2) PX-866 is an pan-isoform inhibitor of Class I P1-3K that covalently binds to ATP binding site of the p110 catalytic subunit. Described herein are studies that illustrate rapid metabolism of PX-866 to a 17-hydroxy PX-866 derivative.

In another data set the target is p110β (Homo sapiens, UniProt P42338). The data set can be described thus: cell based assays, p110β. Particulars: in cell based assays.
Sequence of p110β (P42338 whole entry): as the sequence (P42338 whole entry) above
Sequence of p110β (P27986 whole entry partner): as the sequence (P27986 whole entry partner) above
Text: as §2

Another data set is described as follows: clinical. The note with it: human, in vivo.
Data set [1] can be described thus: Phase I trial: clinical pharmacokinetics.
A short description of data set [2]: Phase I trial of oral PX-866: safety, DLT and MTD. Format: in vivo, human. The protocol: This was an Open-label dose escalation study with expansion cohort at Maximal Tolerated Dose (MTD), 3+3 design and to test efficacy of 2 dosing schedules (intermittent and continuous). PX-866 was administered as an oral dose.
The primary and secondary objectives were tested using two different dosing regimens: 10 days of drug administration and daily administration for 28 days.
Intermittent schedule: 10 dose levels tested (0.5-16 mg). The starting dose level was 0.5 mg. Doses increased as follows: 100% escalation up to 2 mg, 50% escalation up to 4.5 mg, and approximately 30% escalation until the MTD is identified. The highest dose level at which no more than ⅙ patients experiences DLT was declared the MTD. The resulting dose levels were: 0.5, 1, 2, 3, 4.5, 6, 8, 10, 12 and 16 mg.
FIG. 1 illustrates the dosing schedule for intermittent dosing where PX-866 was given to patients on days 1-5 and 8-12 of a 28-day cycle.
Continuous dosing schedule: The starting dose was two dose levels below the MTD of intermittent dosing (8 mg) and subsequent dose levels was one or two dose levels (10 mg or 8 mg) below the MTD of intermittent dosing dependent on recommendation of the dose cohort review committee. FIG. 1 illustrates the dosing schedule for continuous dosing.

A further data set has as its system advanced solid tumors. In words: Phase I trial of oral PX-866: response per RECIST. Format: in vivo, human. On the procedure: Patient response was evaluated according to Response Evaluation Criteria in Solid Tumors (RECIST). Briefly, all measurable lesions up to a maximum of five lesions, representative of all involved organs were identified as target lesions and recorded and measured at baseline. Target lesions were selected on the basis of their size (lesions with the longest diameter) and their suitability for accurate repeated measurements (either by imaging techniques or clinically). A sum of the longest diameter (LD) for all target lesions was calculated and reported as the baseline sum LD. The baseline sum LD was used as reference by which to characterize the objective tumor. All other lesions (or sites of disease) were identified as non-target lesions and were also be recorded at baseline. Measurements of these lesions were not required, but the presence or absence of each was noted throughout follow-up.
A Complete Response (CR) indicated a disappearance of all target lesions.

For data set [3], the system named is PI-3K pathway (p-mTOR and p-S6). The data set can be described thus: Phase I trial: pharmacodynamics in PBMCs stimulated ex vivo, FACS based assay. On the set-up: species or system human. The note with it: PBMCs of treated patients. The protocol:
The pharmacodynamic effects of PX-866 in patients treated in the phase I single agent study were assessed using isolated peripheral blood mononuclear cells (PBMCs) stimulated ex vivo via FACS based assay. […] The study provided Evidence for pathway inhibition lasting up to 3 days post-treatment.

The test system of the next data set is p-AKT/T-AKT. The data set can be described thus: Phase I trial: p-AKT/T-AKT pharmacodynamics. It counts as in vivo, human. The note with it: 3 of 4 patients at 8 mg, 4 hours after a single oral dose.
Data set [4] has as its system A549 lung tumor xenografts. Particulars: 2 mg/kg PX-866 daily treatment groups. On the procedure: H460 and A549 lung tumor xenografts were implanted subcutaneously in nude mice according to previously described procedures. PX-866 was tested on both a daily (2 mg/kg) and every-other-day dosing (3 mg/kg) schedule alone, and in combination with a 10 mg/kg dose of docetaxel. The dosing schedule of PX-866 relative to docetaxel was varied to test the effect of docetaxel treatment prior to or subsequent to PX-866 treatment. A table of the following dosing regimens is as follows with animals in Group 1 receiving a daily vehicle: […]

For data set [5] the following is noted: aqueous solutions at 37° C. or 0° C. at neutral pH; cited from earlier work.
For data set [6] the following is noted: in vivo; cited from earlier work.
The subject of a further data set is CUHN015 tumors. The data set can be described thus: direct patient tumor model of SCCHN, CUHN015. Format: in vivo, nude mice. The note with it: PX-866 2 mg/kg 5 out of 7 days; docetaxel 20 mg/kg IP weekly. The protocol:
Briefly, these models employed direct implantation of patients' tumors into nude mice according to Keysar et al., J Clin Oncol 28:15s, 2010 (suppl. abstruct 5558).
Animals were treated with PX-866 alone, and in combination with 20 mg/kg docetaxel dosed intraperitoneally (IP) on a weekly schedule. Saline treated animals and 20 mg/kg docetaxel dosed animals served as controls for the study.

Sequence of p110α (P42336 whole entry, canonical isoform): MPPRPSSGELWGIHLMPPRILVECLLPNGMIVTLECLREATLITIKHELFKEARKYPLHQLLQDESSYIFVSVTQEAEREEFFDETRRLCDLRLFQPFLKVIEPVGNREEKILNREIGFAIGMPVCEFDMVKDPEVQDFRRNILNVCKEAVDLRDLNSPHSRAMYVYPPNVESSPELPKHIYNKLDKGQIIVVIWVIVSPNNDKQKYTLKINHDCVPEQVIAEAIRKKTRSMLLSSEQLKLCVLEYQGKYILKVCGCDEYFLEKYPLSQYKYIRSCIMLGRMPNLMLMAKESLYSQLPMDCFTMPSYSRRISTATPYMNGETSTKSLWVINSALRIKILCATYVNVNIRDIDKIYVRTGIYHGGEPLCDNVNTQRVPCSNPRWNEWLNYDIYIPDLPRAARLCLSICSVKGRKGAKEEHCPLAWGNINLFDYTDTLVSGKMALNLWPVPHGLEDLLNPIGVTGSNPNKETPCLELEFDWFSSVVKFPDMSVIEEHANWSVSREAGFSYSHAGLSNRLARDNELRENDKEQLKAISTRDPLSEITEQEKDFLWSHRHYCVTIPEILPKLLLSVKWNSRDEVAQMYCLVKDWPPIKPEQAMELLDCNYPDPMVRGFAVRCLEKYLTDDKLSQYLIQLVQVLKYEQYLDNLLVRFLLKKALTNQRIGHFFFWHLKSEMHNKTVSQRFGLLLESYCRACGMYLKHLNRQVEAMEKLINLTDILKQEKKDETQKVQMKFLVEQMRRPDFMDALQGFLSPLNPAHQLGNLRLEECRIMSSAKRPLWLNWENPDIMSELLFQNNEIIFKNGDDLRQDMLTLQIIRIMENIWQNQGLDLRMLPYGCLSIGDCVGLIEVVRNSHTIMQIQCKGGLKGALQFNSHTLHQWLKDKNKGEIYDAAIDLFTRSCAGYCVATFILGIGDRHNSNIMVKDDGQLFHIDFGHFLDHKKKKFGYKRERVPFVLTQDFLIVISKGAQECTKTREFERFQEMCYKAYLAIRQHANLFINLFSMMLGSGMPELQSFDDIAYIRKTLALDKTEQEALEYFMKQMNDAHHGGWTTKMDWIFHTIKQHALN
Sequence of p110α (P27986 whole entry partner, canonical isoform): as the sequence (P27986 whole entry partner) above
Sequence of PIK3CD (O00329 whole entry): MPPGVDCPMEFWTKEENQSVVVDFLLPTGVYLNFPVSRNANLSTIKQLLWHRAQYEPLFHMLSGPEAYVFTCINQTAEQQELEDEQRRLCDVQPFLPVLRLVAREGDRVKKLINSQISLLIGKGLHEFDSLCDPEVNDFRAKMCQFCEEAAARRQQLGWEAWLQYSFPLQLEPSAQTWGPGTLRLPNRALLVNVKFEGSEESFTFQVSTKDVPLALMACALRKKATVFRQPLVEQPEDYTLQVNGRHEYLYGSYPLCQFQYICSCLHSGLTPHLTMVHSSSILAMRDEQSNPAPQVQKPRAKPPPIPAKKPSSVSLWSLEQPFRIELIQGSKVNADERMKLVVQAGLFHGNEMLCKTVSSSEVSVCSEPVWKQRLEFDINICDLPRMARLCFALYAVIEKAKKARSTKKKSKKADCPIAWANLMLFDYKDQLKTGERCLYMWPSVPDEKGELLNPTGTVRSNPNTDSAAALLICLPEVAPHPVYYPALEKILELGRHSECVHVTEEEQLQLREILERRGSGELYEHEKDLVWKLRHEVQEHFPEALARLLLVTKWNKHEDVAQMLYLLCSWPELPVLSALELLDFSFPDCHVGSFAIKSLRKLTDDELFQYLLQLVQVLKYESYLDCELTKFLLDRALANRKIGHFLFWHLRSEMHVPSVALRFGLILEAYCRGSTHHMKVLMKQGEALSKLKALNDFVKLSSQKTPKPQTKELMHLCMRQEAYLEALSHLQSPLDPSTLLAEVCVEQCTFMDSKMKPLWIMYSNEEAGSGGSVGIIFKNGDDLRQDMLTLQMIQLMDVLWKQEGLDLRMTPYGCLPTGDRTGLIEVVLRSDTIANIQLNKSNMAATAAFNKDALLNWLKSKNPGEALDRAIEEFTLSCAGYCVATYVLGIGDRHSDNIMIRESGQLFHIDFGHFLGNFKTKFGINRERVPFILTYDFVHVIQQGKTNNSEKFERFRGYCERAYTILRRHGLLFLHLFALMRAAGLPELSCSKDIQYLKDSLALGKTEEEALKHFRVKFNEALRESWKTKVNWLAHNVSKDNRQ
Sequence of PIK3CD (P27986 whole entry partner): as the sequence (P27986 whole entry partner) above
Sequence of PIK3CA (P42336 whole entry): as the sequence (P42336 whole entry, canonical isoform) above
Sequence of PIK3CA (P27986 whole entry partner): as the sequence (P27986 whole entry partner) above

On to `C=CCN(C=C1C(=O)OC(COC)C2(C)C1=C(O)C(=O)C1=C2C(OC(C)=O)CC2(C)C(O)CCC12)CC=C` (centres unmarked) [17-OH PX-866], for which the IC50 came out at 14 nM against PIK3CA; 57 nM against PIK3CB; 131 nM against PIK3CD; 148 nM on PIK3CG; 14 nM on p110α; 57 nM against p110β. On p110α (cell proliferation assays versus p110α and p110β isoforms, relative to PX-866), the increase in potency is recorded as 2-5 fold. The same compound gave an AUC(0-t) in “clinical” (8 mg) of 4.22 ng·h/mL. This compound came in with a Cmax in the data set “clinical” (8 mg) of 1.14 ng/mL. This compound also had a half-life in “clinical” (8 mg) of 3.62 h. Also, in “clinical” (po), the Tmax was 0.67 to 1.07 h. The drug accumulation result in data set [1] (12 mg cohort, intermittent dosing) is listed as “no evidence of drug accumulation”. Also, the “AUC in humans compared with mice” value in data set [1] (due to increased mean residence time in humans) is “exceeded AUC in mice”. The “Cmax in humans compared with mice” value in data set [1] (mice treated at an efficacious dose of PX-866 (2 mg/kg)) was “equal to or exceed peak levels observed in mice”.

For the compound `C=CCN(/C=C1/C(=O)O[C@H](COC)[C@@]2(C)C1=C(O)C(=O)C1=C2[C@H](OC(C)=O)C[C@]2(C)C(=O)CC[C@@H]12)CC=C` [PX-866, Acetic acid 4-diallylaminomethylene-6-hydroxy-1-α-methoxymethyl-10β,13β-dimethyl-3,7,17-trioxo-1,3,4,7,10,11β,12,13,14α,15,16,17-dodecahydro-2-oxa-cyclopenta[α]phenanthren-11-yl ester], the IC50 at PIK3CA worked out at 39 nM; at PIK3CB it was 88 nM; against PIK3CD, 124 nM; at PIK3CG it was 198 nM; against p110α, 39 nM; against p110β, 88 nM. Moreover, the ALT/AST elevation entry in data set [2] (continuous dosing) is recorded as “ALT/AST elevation was observed”. Besides, the “Most common adverse events (AEs)” value in [2] (continuous dosing) is “diarrhea, nausea, vomiting, headache and fatigue”; in data set [2] (intermittent dosing) it was “diarrhea, nausea, vomiting, and constipation”. The “DLT, patients” value in data set [2] (continuous dosing, 10 mg per day) is 2/3. Besides, the “toxicity in patients receiving >2 cycles” value in data set [2] (intermittent dosing schedule) is reported as “No significant increase in toxicity”. Also, in data set [2] (intermittent dosing, 16 mg per day), the “Dose limiting toxicity (DLT), patients” value is 2/5. The “Maximal Tolerated Dose (MTD) for continuous dosing” value in [2] (oral, daily for 28 days) stood at 8 mg per day. Further, the “Maximal Tolerated Dose (MTD) for intermittent dosing” value in [2] (oral, days 1-5 and 8-12 of a 28-day cycle) is 12 mg per day. Also, the figures for the “Disease stabilization, patients” value in the data set with advanced solid tumors (continuous dosing) and with advanced solid tumors (intermittent dosing) were 71% and 16%, respectively. Further, the “duration of pathway inhibition post-treatment” value in data set [3] is “up to 3 days”. The “decrease in p-AKT/T-AKT” value with p-AKT/T-AKT is reported as at least 60%. The mortality entry in data set [4] was “Increased mortality”. Besides, the “conversion of parent to 17-OH metabolite” value in data set [1] (oral, patients) is on record as “rapid conversion”. For the same compound, in data set [1] (oral, patients, with rare exceptions), the “plasma level of parent” value is “below the limits of detection”.

In the case of `COC[C@H]1OC(=O)c2coc3c2[C@@]1(C)C1=C(C3=O)[C@@H]2CCC(=O)[C@@]2(C)C[C@H]1OC(C)=O` [Wortmannin], the stability result in data set [5] was “subject to decomposition by hydrolytic opening of the furan ring”. For the same compound, the toxicity entry in data set [6] was “liver and hematologic toxicity”.

Regarding `CC(=O)O[C@@]12CO[C@@H]1C[C@H](O)[C@@]1(C)C(=O)[C@H](O)C3=C(C)[C@@H](OC(=O)[C@H](O)[C@@H](NC(=O)OC(C)(C)C)c4ccccc4)C[C@@](O)([C@@H](OC(=O)c4ccccc4)[C@H]21)C3(C)C` [docetaxel, (2R,3S)—N-carboxy-3-phenylisoserine,N-tert-butyl ester, 13-ester with 5β-20-epoxy-1,2α,4,7β,10β,13α-hexahydroxytax-11-en-9-one 4-acetate 2-benzoate, trihydrate], in the data set with CUHN015 tumors, the tumor growth result was “no effect on tumor growth”.
